# What was measured:
# [1] = test system: C. guilliermondii IBA 155; assay: antifungal activity (disc-diffusion, MIC, MFC); type: cell-based, Candida guilliermondii; details: Meyerozyma guilliermondii, IBA155; for MIC: fluconazole by Etest
# Protocol: (§1) Direct antimicrobial activity against Gram-negative and Gram-positive bacterial strains, as well as against yeast, was examined as previously described by the disc-diffusion test, the MIC determination assay, the MBC (for bacteria), and the MFC (for yeasts) determination tests. All the above-mentioned tests were performed according to EUCAST [71, 72] and CLSI [73, 74, 75, 76, 77] recommendations. The following reference agents were used: nitrofurantoin (for Gram-negative rods), linezolid (for Gram-positive bacteria), and fluconazole (in the case of fungi). The new aromatic diboronic acids were dissolved in DMSO (Sigma, St. Louis, MO, USA). In the disc-diffusion test, the concentration of new agents was 0.4 mg per disc.
# [2] = test system: C. parapsilosis ATCC 22019; assay: antifungal activity (disc-diffusion, MIC, MFC); type: cell-based, Candida parapsilosis; details: Lodderomyces parapsilosis, ATCC22019; for MIC: fluconazole by Etest
# Protocol: as §1
# [3] = test system: S. epidermidis ATCC 12228; assay: direct antimicrobial activity (disc-diffusion, MIC, MBC); type: cell-based; details: Staphylococcus epidermidis, ATCC12228
# Protocol: as §1
# E. faecium ATCC 6057 = assay: as above; type: cell-based; details: Enterococcus faecium, ATCC6057
# Protocol: as §1
# [4] = test system: S. aureus ATCC 43300 MRSA; assay: as above; type: cell-based; details: Staphylococcus aureus
# Protocol: as §1
# E. faecalis ATCC 29212 = assay: as above; type: cell-based; details: Enterococcus faecalis, ATCC29212
# Protocol: as §1
# S. aureus ATCC 6538P = assay: as above; type: cell-based; details: Staphylococcus aureus, ATCC6538P
# Protocol: as §1
# [5] = MTT-based viability assay; type: cell-based; details: human, MRC-5 human fibroblasts, 72 h, read-out: Viability of MRC-5 cells (% of viable cells ± SD)
# Protocol: MRC-5 human fibroblasts (ECACC) were cultured in MEME, Minimum Essential Medium Eagle (Merck) supplemented with 10% fetal bovine serum (Merck), 2 mM l-glutamine, antibiotics (100 U/mL penicillin, 100 μg/mL streptomycin, Merck) and 1% non-essential amino acids (Merck). Cells were grown in 75 cm^2 cell culture flasks (Sarstedt) in a humidified atmosphere of CO2/air (5/95%) at 37 °C. MTT-based viability assay was conducted as described previously. Optical densities were measured at 570 nm using a BioTek microplate reader. All measurements were carried out in three replicates, and the results were expressed as a percent of viable cells versus control cells.
# S. cerevisiae ATCC 9763 = assay: antifungal activity (disc-diffusion, MIC, MFC); type: cell-based; details: Saccharomyces cerevisiae, ATCC9763; for MIC: fluconazole by Etest
# Protocol: as §1
# C. tropicalis ATCC 750 = assay: antifungal activity (disc-diffusion, MIC, MFC); type: cell-based; details: Candida tropicalis, ATCC750; for MIC: fluconazole by Etest
# Protocol: as §1
# C. tropicalis IBA 171 = assay: antifungal activity (disc-diffusion, MIC, MFC); type: cell-based; details: Candida tropicalis, IBA171; for MIC: fluconazole by Etest
# Protocol: as §1
# C. albicans ATCC 90028 = assay: antifungal activity (disc-diffusion, MIC, MFC); type: cell-based; details: Candida albicans, ATCC90028; for MIC: fluconazole by Etest
# Protocol: as §1
# C. krusei ATCC 6258 = assay: antifungal activity (disc-diffusion, MIC, MFC); type: cell-based, Candida krusei; details: Pichia kudriavzevii, ATCC6258; for MIC: fluconazole by Etest
# Protocol: as §1
# [6] = test system: K. pneumoniae ATCC 700603 ESBL-positive; assay: combination disc test CDT-ESBL; type: cell-based; details: Klebsiella pneumoniae, ATCC700603
# E. coli 76 KPC-2(+) = assay: MIC of tested agent alone, microdilution; type: cell-based; details: Escherichia coli; read-out: MIC of agent alone
# Protocol: (§2) To examine the ability of tested agents to inhibit various carbapenemases and AmpC-enzymes, their synergy with antibiotics against β-lactamase-producing strains was assessed by checkerboard microdilution assay, with slight modification. Checkerboards were prepared in microtiter plates, with seven two-fold dilutions of β-lactams (1–64 mg/L) in the rows and three two-fold dilutions of tested agents and PBA (4–16 mg/L) in the columns. Tested agents’ concentrations were limited to the concentrations at which the newest commercially available BLIs (vaborbactam, relebactam, and avibactam) are used in susceptibility testing. Plates were inoculated and incubated as in the MIC microdilution assay. Parallel, MICs of tested agents and PBA alone were determined by the microdilution assay. Following the incubation, antibiotic MICs in the presence of each agent’s concentration were determined. Moreover, for the first well without growth found in each checkerboard row and column along the growth/non-growth interface, the fractional inhibitory concentration index (FICI) was calculated using the formula below:FICI = [(MIC of antibiotic in combination)/(MIC of antibiotic alone)] + [(MIC of the tested agent in combination)/(MIC of tested agent alone)].
# [7] = test system: K. pneumoniae 83 KPC-3(+), CTX-M-3(+); assay: MIC of tested agent alone, microdilution; type: cell-based; details: Klebsiella pneumoniae; read-out: MIC of agent alone
# Protocol: as §2
# [8] = test system: K. pneumoniae ATCC BAA-1705 KPC-2(+); assay: MIC of tested agent alone, microdilution; type: cell-based; details: Klebsiella pneumoniae, ATCCBAA1705; read-out: MIC of agent alone
# Protocol: as §2
# E. coli 77 CMY-2(+) = assay: MIC of tested agent alone, microdilution; type: cell-based; details: Escherichia coli; read-out: MIC of agent alone
# Protocol: as §2
# [9] = test system: K. pneumoniae 81 KPC-3(+); assay: MIC of tested agent alone, microdilution; type: cell-based; details: Klebsiella pneumoniae; read-out: MIC of agent alone
# Protocol: as §2
# [10] = test system: P. aeruginosa MUW 700 AmpC(+); assay: MIC of tested agent alone, microdilution; type: cell-based; details: Pseudomonas aeruginosa; read-out: MIC of agent alone
# Protocol: as §2
# [11] = test system: P. aeruginosa MUW 700 cAmpC-positive; assay: combination disc test CDT-AmpC; type: cell-based; details: Pseudomonas aeruginosa
# [12] = test system: K. pneumoniae ATCC BAA 1705 KPC-2-positive; assay: combination disc test CDT-KPC; type: cell-based; details: Klebsiella pneumoniae, BAA1705; agent 0.3 mg per disc; read-out: Diameter of inhibition zone, MEM-10 disc with agent
# [13] = test system: E. coli 77 CMY-2-positive; assay: combination disc test CDT-AmpC; type: cell-based; details: Escherichia coli
# [14] = test system: E. coli 77 CMY-2-positive; assay: checkerboard microdilution, antibiotic plus tested agent; type: cell-based, Escherichia coli; details: Escherichia coli; read-out: MIC of ceftazidime alone
# Protocol: as §2
# (§3) For calculations, all off-scale MICs were converted to the next-highest doubling concentration. Subsequently, both the average and the lowest FICI were interpreted. The interpretation was as follows: FICI ≤ 0.5, synergy; 0.5 < FICI ≤ 4, indifference and FICI > 4, antagonism. Primarily, examined combinations consisted of meropenem (Pol-Aura, Morag, Poland) plus tested agents against carbapenemases-producing strains and ceftazidime (Pol-Aura, Morag, Poland) plus tested agents against AmpC-producing strains. For agents that reduced meropenem MIC at least 4-fold for at least two tested strains, similar assays were performed with imipenem (Pol-Aura, Morag, Poland) and ertapenem (Pol-Aura, Morag, Poland).
# [15] = test system: P. aeruginosa MUW 700 cAmpC-positive; assay: as above; type: cell-based, Pseudomonas aeruginosa; details: Pseudomonas aeruginosa; read-out: MIC of ceftazidime alone
# Protocol: as §2, §3
# [16] = test system: K. pneumoniae 81 KPC-3-positive; assay: as above; type: cell-based, Klebsiella pneumoniae; details: Klebsiella pneumoniae; read-out: MIC of imipenem alone
# Protocol: as §2, §3
# [17] = test system: K. pneumoniae 83 KPC-3-positive, CTX-M-3-positive; assay: as above; type: cell-based, Klebsiella pneumoniae; details: Klebsiella pneumoniae; read-out: MIC of imipenem alone
# Protocol: as §2, §3
# [18] = test system: K. pneumoniae ATCC BAA-1705 KPC-2-positive; assay: as above; type: cell-based, Klebsiella pneumoniae; details: Klebsiella pneumoniae, ATCCBAA1705; read-out: MIC of imipenem alone
# Protocol: as §2, §3
# [19] = test system: E. coli 76 KPC-2-positive; assay: as above; type: cell-based, Escherichia coli; details: Escherichia coli; read-out: MIC of imipenem alone
# Protocol: as §2, §3
# [20] = agent 0.3 mg per disc, read-out: Diameter of inhibition zone, CAZ-30 disc with agent
# [21] = ceftazidime 30 µg per disc, 6 mm disc, read-out: Diameter of inhibition zone, CAZ-30 disc without agent
# [22] = 0.4 mg per disc, 9 mm disc (fluconazole 0.025 mg, 6 mm disc), - no zone, read-out: Diameter of inhibition zone
Compound,MIC [1] [µg/mL],MIC [2] [µg/mL],MIC [3] [µg/mL],MIC (E. faecium ATCC 6057) [µg/mL],MIC [4] [µg/mL],MIC (E. faecalis ATCC 29212) [µg/mL],MIC (S. aureus ATCC 6538P) [µg/mL],"viability at 72 h, 12.5 mg/L [5] [%]","viability at 72 h, 25 mg/L [5] [%]","viability at 72 h, 50 mg/L [5] [%]",MIC (S. cerevisiae ATCC 9763) [µg/mL],MIC (C. tropicalis ATCC 750) [µg/mL],MIC (C. tropicalis IBA 171) [µg/mL],MIC (C. albicans ATCC 90028) [µg/mL],MIC (C. krusei ATCC 6258) [µg/mL],other results
OB(O)c1c(F)c(F)c(B(O)O)c(F)c1F [1g],> 400,> 400,> 400,> 400,> 400,> 400,> 400,104 ± 8.2,107 ± 9.2,98.7 ± 5.8,> 400,> 400,> 400,> 400,400,
COc1cc(B(O)O)c(OC)cc1B(O)O [1l],,,,,,,,110 ± 1.6,114 ± 1.8,105 ± 7.8,,,,,,
COc1c(B(O)O)cccc1B(O)O [2g],> 400,> 400,> 400,400,> 400,> 400,> 400,111 ± 9.7,117 ± 3.7,103 ± 5.1,> 400,> 400,> 400,> 400,> 400,"zone of inhibition at 300 µg/disc [6, 20]: 13 mm; MIC (E. coli 76 KPC-2(+)): > 400 µg/mL; MIC [7]: > 400 µg/mL; MIC [8]: > 400 µg/mL; MIC (E. coli 77 CMY-2(+)): > 400 µg/mL; MIC [9]: > 400 µg/mL; MIC [10]: > 400 µg/mL; zone of inhibition at 300 µg/disc [11, 20]: 19 mm; zone of inhibition at 300 µg/disc [12]: 6 mm; zone of inhibition at 300 µg/disc [13, 20]: 20 mm"
OB(O)c1ccc(B(O)O)s1 [5b],> 400,> 400,> 400,> 400,> 400,200,> 400,101 ± 7.7,110 ± 2.7,87.3 ± 13.6,> 400,> 400,> 400,400,400,
"Cl.OB(O)c1cncc(B(O)O)c1 [6a, pyridine-3,5-diboronic acid hydrochloride]",> 400,> 400,400,400,400,> 400,50,138 ± 3.6,133.5 ± 0.7,127 ± 2.6,> 400,> 400,> 400,> 400,> 400,
"CC(C)(O/N=C(\C(=O)N[C@@H]1C(=O)N2C(C(=O)[O-])=C(C[n+]3ccccc3)CS[C@H]12)c1csc(N)n1)C(=O)O [CAZ, ceftazidime, reference compound]",,,,,,,,,,,,,,,,"zone of inhibition at 30 µg/disc [6, 21]: 14 mm; MIC [14]: 64 µg/mL; zone of inhibition at 30 µg/disc [11, 21]: 11 mm; MIC [15]: 128 µg/mL; zone of inhibition at 30 µg/disc [13, 21]: 13 mm"
"OC(Cn1cncn1)(Cn1cncn1)c1ccc(F)cc1F [Fl, fluconazole, reference compound]",0.75,2,,,,,,,,,16,0.38,0.38,1,64,"zone of inhibition at 0.4 mg/disc [1, 22]: 40 mm; zone of inhibition at 0.4 mg/disc [2, 22]: 32 mm; zone of inhibition at 0.4 mg/disc (S. cerevisiae ATCC 9763; [22]): 12 mm; zone of inhibition at 0.4 mg/disc (C. tropicalis ATCC 750; [22]): 40 mm; zone of inhibition at 0.4 mg/disc (C. tropicalis IBA 171; [22]): 39 mm; zone of inhibition at 0.4 mg/disc (C. albicans ATCC 90028; [22]): 43 mm; zone of inhibition at 0.4 mg/disc (C. krusei ATCC 6258; [22]): 16 mm"
"C[C@@H](O)[C@H]1C(=O)N2C(C(=O)O)=C(SCCN=CN)C[C@H]12 [IMI, imipenem, reference compound]",,,,,,,,,,,,,,,,MIC [16]: 8 µg/mL; MIC [17]: 8 µg/mL; MIC [18]: 16 µg/mL; MIC [19]: 128 µg/mL
